Measurements reported in US20210395217A1, “PESTICIDALLY ACTIVE AZOLE-AMIDE COMPOUNDS” (SYNGENTA PARTICIPATIONS AG, priority 2018, published 2021).

How the values were obtained:
Type in all cases: in vivo
Spodoptera littoralis = assay: Example B7: Spodoptera littoralis (Egyptian cotton leaf worm), cotton leaf discs sprayed, L1 larvae; conditions: foliar, 72 h, application rate of 200 ppm, 3 days after infestation, read-out: control in at least one of the three categories (mortality, anti-feedant effect, or growth inhibition)
Description: Example B7: Spodoptera littoralis (Egyptian Cotton Leaf Worm)
Cotton leaf discs were placed onto agar in 24-well microtiter plates and sprayed with aqueous test solutions prepared from 10′000 ppm DMSO stock solutions. After drying the leaf discs were infested with five L1 larvae. The samples were assessed for mortality, anti-feeding effect, and growth inhibition in comparison to untreated samples 3 days after infestation. Control of Spodoptera littoralis by a test sample is given when at least one of the categories mortality, anti-feedant effect, and growth inhibition is higher than the untreated sample.

Plutella xylostella [1] = assay: Example B4: Plutella xylostella (diamond back moth), artificial diet, 24-well, eggs; conditions: 192 h, application rate of 200 ppm, 8 days after infestation, 24-well plates, read-out: control in at least one of the two categories (mortality or growth inhibition)
Description: Example B4: Plutella xylostella (Diamond Back Moth)
24-well microtiter plates with artificial diet were treated with aqueous test solutions prepared from 10′000 ppm DMSO stock solutions by pipetting. After drying, Plutella eggs were pipetted through a plastic stencil onto a gel blotting paper and the plate was closed with it. The samples were assessed for mortality and growth inhibition in comparison to untreated samples 8 days after infestation. The following compounds gave an effect of at least 80% control in at least one of the two categories (mortality or growth inhibition) at an application rate of 200 ppm: […]

Diabrotica balteata = assay: Example B1: Diabrotica balteata (corn root worm), maize sprouts sprayed, L2 larvae; conditions: 96 h, application rate of 200 ppm, 4 days after infestation, read-out: control in at least one of the two categories (mortality or growth inhibition)
Description: Example B1: Diabrotica balteata (Corn Root Worm)
Maize sprouts placed onto an agar layer in 24-well microtiter plates were treated with aqueous test solutions prepared from 10′000 ppm DMSO stock solutions by spraying. After drying, the plates were infested with L2 larvae (6 to 10 per well). The samples were assessed for mortality and growth inhibition in comparison to untreated samples 4 days after infestation.
The following compounds gave an effect of at least 80% control in at least one of the two categories (mortality or growth inhibition) at an application rate of 200 ppm: […]

Chilo suppressalis = assay: Example B3: Chilo suppressalis (striped rice stem borer), artificial diet, L2 larvae; conditions: 144 h, application rate of 200 ppm, 6 days after infestation, read-out: control in at least one of the three categories (mortality, anti-feedant effect, or growth inhibition)
Description: Example B3: Chilo suppressalis (Striped Rice Stem Borer)
24-well microtiter plates with artificial diet were treated with aqueous test solutions prepared from 10′000 ppm DMSO stock solutions by pipetting. After drying, the plates were infested with L2 larvae (6-8 per well). The samples were assessed for mortality, anti-feeding effect, and growth inhibition in comparison to untreated samples 6 days after infestation. Control of Chilo suppressalis by a test sample is given when at least one of the categories mortality, anti-feedant effect, and growth inhibition is higher than the untreated sample.

Plutella xylostella [2] = assay: Example B10: Plutella xylostella (diamondback moth), artificial diet, 96-well, eggs; conditions: 216 h, application rate of 500 ppm, 9 days after infestation, 96-well plates
Description: Example B10: Plutella xylostella (Diamondback Moth)
96-well microtiter plates containing artificial diet were treated with aqueous test solutions, prepared from 10′000 ppm DMSO stock solutions, by a liquid handling robot. After drying, eggs (˜30 per well) were infested onto a netted lid which was suspended above the diet. The eggs hatch and L1 larvae move down to the diet. The samples were assessed for mortality 9 days after infestation.
The following compounds gave an effect of at least 80% average mortality at an application rate of 500 ppm: […]

Cc1nc(C(C)NC(=O)c2cc(C(F)(F)F)cc(C(F)(F)F)c2)n(-c2ccc(C#N)cn2)n1 (centres unmarked) [Compound F7, N-[1-[2-(5-cyano-2-pyridyl)-5-methyl-1,2,4-triazol-3-yl]ethyl]-3,5-bis (trifluoromethyl) benzamide]
≥ 80%: percent control (mortality, anti-feedant effect or growth inhibition) at 200 ppm (Spodoptera littoralis) | percent control (mortality or growth inhibition) at 200 ppm (Plutella xylostella [1]) | percent control (mortality or growth inhibition) at 200 ppm (Diabrotica balteata)

CC(NC(=O)c1cc(Br)cc(C(F)(F)F)c1)c1nc(C2CC2)nn1-c1ccc(C#N)cn1 (centres unmarked) [Compound F11, 3-bromo-N-[1-[2-(5-cyano-2-pyridyl)-5-cyclopropyl-1,2,4-triazol-3-yl]ethyl]-5-(trifluoromethyl) benzamide]
≥ 80%: percent control (mortality or growth inhibition) at 200 ppm (Plutella xylostella [1]) | percent control (mortality, anti-feedant effect or growth inhibition) at 200 ppm (Chilo suppressalis) | percent control (mortality or growth inhibition) at 200 ppm (Diabrotica balteata) | mortality at 500 ppm (Plutella xylostella [2])

CC(NC(=O)c1cc(OC(F)F)cc(C(F)(F)F)c1)c1ncnn1-c1ccc(C#N)cn1 (centres unmarked) [Compound F13, N-[1-[2-(5-cyano-2-pyridyl)-1,2,4-triazol-3-yl]ethyl]-3-(difluoromethoxy)-5-(trifluoromethyl) benzamide]
≥ 80%: percent control (mortality, anti-feedant effect or growth inhibition) at 200 ppm (Spodoptera littoralis) | percent control (mortality or growth inhibition) at 200 ppm (Plutella xylostella [1]) | percent control (mortality or growth inhibition) at 200 ppm (Diabrotica balteata)

CC(NC(=O)c1cc(Br)cc(C(F)(F)F)c1)c1ncnn1-c1ccc(C#N)cn1 (centres unmarked) [Compound F14, 3-bromo-N-[1-[2-(5-cyano-2-pyridyl)-1,2,4-triazol-3-yl]ethyl]-5-(trifluoromethyl) benzamide]
≥ 80%: percent control (mortality, anti-feedant effect or growth inhibition) at 200 ppm (Spodoptera littoralis) | percent control (mortality or growth inhibition) at 200 ppm (Plutella xylostella [1]) | percent control (mortality or growth inhibition) at 200 ppm (Diabrotica balteata)

CC(NC(=O)c1cc(C(F)F)cc(C(F)(F)F)c1)c1ncnn1-c1ccc(C#N)cn1 (centres unmarked) [Compound F15, N-[1-[2-(5-cyano-2-pyridyl)-1,2,4-triazol-3-yl]ethyl]-3-(difluoromethyl)-5-(trifluoromethyl) benzamide]
≥ 80%: percent control (mortality, anti-feedant effect or growth inhibition) at 200 ppm (Spodoptera littoralis) | percent control (mortality or growth inhibition) at 200 ppm (Plutella xylostella [1]) | percent control (mortality, anti-feedant effect or growth inhibition) at 200 ppm (Chilo suppressalis) | percent control (mortality or growth inhibition) at 200 ppm (Diabrotica balteata)

CC(NC(=O)c1cc(Br)cc(OCC(F)(F)F)c1)c1ncnn1-c1ccc(C#N)cn1 (centres unmarked) [Compound F19, 3-bromo-N-[1-[2-(5-cyano-2-pyridyl)-1,2,4-triazol-3-yl]ethyl]-5-(2,2,2-trifluoroethoxy) benzamide]
≥ 80%: percent control (mortality, anti-feedant effect or growth inhibition) at 200 ppm (Spodoptera littoralis) | percent control (mortality or growth inhibition) at 200 ppm (Plutella xylostella [1]) | percent control (mortality, anti-feedant effect or growth inhibition) at 200 ppm (Chilo suppressalis) | mortality at 500 ppm (Plutella xylostella [2])

CC(NC(=O)c1cc(Br)cc(OCC(F)F)c1)c1ncnn1-c1ccc(C#N)cn1 (centres unmarked) [Compound F20, 3-bromo-N-[1-[2-(5-cyano-2-pyridyl)-1,2,4-triazol-3-yl]ethyl]-5-(2,2-difluoroethoxy) benzamide]
≥ 80%: percent control (mortality, anti-feedant effect or growth inhibition) at 200 ppm (Spodoptera littoralis) | percent control (mortality or growth inhibition) at 200 ppm (Plutella xylostella [1]) | percent control (mortality, anti-feedant effect or growth inhibition) at 200 ppm (Chilo suppressalis) | mortality at 500 ppm (Plutella xylostella [2])

CC(NC(=O)c1cc(Cl)cc(Cl)c1)c1ncnn1-c1ccc(C#N)cn1 (centres unmarked) [Compound F22, 3,5-dichloro-N-[1-[2-(5-cyano-2-pyridyl)-1,2,4-triazol-3-yl]ethyl]benzamide]
≥ 80%: percent control (mortality, anti-feedant effect or growth inhibition) at 200 ppm (Spodoptera littoralis) | percent control (mortality or growth inhibition) at 200 ppm (Plutella xylostella [1]) | percent control (mortality, anti-feedant effect or growth inhibition) at 200 ppm (Chilo suppressalis) | percent control (mortality or growth inhibition) at 200 ppm (Diabrotica balteata)

CC(NC(=O)c1cc(Cl)cc(Br)c1)c1ncnn1-c1ccc(C#N)cn1 (centres unmarked) [Compound F23, 3-bromo-5-chloro-N-[1-[2-(5-cyano-2-pyridyl)-1,2,4-triazol-3-yl]ethyl]benzamide]
≥ 80%: percent control (mortality, anti-feedant effect or growth inhibition) at 200 ppm (Spodoptera littoralis) | percent control (mortality or growth inhibition) at 200 ppm (Plutella xylostella [1]) | percent control (mortality or growth inhibition) at 200 ppm (Diabrotica balteata)
